System: yeast genes (level of expressed mRNA)
Assay: DNA chip analysis of expressed mRNA of yeast genes after 2 h culture with a toxic chemical substance
Type: cell-based, Saccharomyces cerevisiae S288C
Protocol: Yeast (Saccharomyces cerevtisiae S288C (α SUC2mal mel gap2 CUP1)) were cultured at 25° C. on YPD medium (yeast extract 1%, polypepton 2%, glucose 2%). One of toxic chemical substances was added to the cell at logarithmic growth phase, and the cell was further cultured for two hours. Cell was cultured without any chemical substance in the same condition, and was used as control. Concentrations of the chemical substances were defined to inhibit the growth of the yeast but not lead to death.
After the completion of cultivation, the culture was centrifuged to collect the cells. To the cells, sodium acetate buffer (50 mM sodium acetate, 10 mM EDTA, 1% SDS) was added, and the mixture was shaken at 65° C. for five minutes, followed by returning to room temperature, and obtaining the supernatant, which procedure was repeated two times. To the supernatant, ½ amount of a solution of phenol/chloroform was added, and the mixture was centrifuged to give a supernatant, which was added with an equal amount of chloroform, and the mixture was centrifuged to give a supernatant. To the supernatant, an equal amount of isopropanol containing 0.3 M sodium acetate was added, and the mixture was allowed to stand at room temperature for 30 minutes, after which the mixture was centrifuged to give a sediment of the whole RNAs. Seventy % ethanol was added to the sediment, and the mixture was again centrifuged to give a sediment, which was then dried and dissolved in water. mRNA was isolated from the whole RNAs as followings. In view of the fact that a poly A chain is attached to the 3′ terminus of mRNA, a polynucleotide having a poly T structure which was immobilized on the surface of latex beads was used to trap the mRNA, and then the mRNA was washed and eluted with spine column (Oligotex-dT30<Super>mRNA Purification Kit, Takara). Reverse transcription of the mRNA was conducted with a reverse transcriptase (Super Script II Reverse Transcriptase; catalogue No. 18064-014, GibcoBRL) using fluorescence-labeled nucleotides to give cDNAs that were introduced with Cy3-dUTP or Cy5-dUTP during the reverse transcription.
The labeled cDNAs were dissolved in TE buffer (10 mM Tris-HCl/1 mM EDTA, pH8.0), and the solution was dropped on the DNA chip containing the whole genes of yeast (DNA Chip Research Inc. Japan) so that the cDNAs were hybridized on the DNA chip at 65° C. for over 12 hours. The fluoresces intensity of the DNA chip was read with a scanner, and the ratio relative to the fluorescence intensity resulting from the absence of chemical substance was estimated as the following, which is shown in Tables 1 to 9: [formula]
In the Tables, “Intensity” indicated in the rightmost column is a value of the level of expressed mRNA of each gene in control cells as divided by the average level of the expressions of the whole genes.

C=CC=O [(14), acrolein]
The level of expressed mRNA in the presence of chemical substance/absence: YGR293C (gene YGR293C): 1.0
The level of expressed mRNA in the presence of chemical substance/absence: YHL006C (gene YHL006C): 1.1
The level of expressed mRNA in the presence of chemical substance/absence: YHL021C (gene YHL021C): 1.1
The level of expressed mRNA in the presence of chemical substance/absence: YHL037C (gene YHL037C): 0.9
level of expressed mRNA in the presence of chemical substance/in its absence (gene YHR037W): 1.1
The level of expressed mRNA in the presence of chemical substance/absence: YHR083W (gene YHR083W): 1.6
level of expressed mRNA in the presence of chemical substance/in its absence (gene YHR092C): 1.6
The level of expressed mRNA in the presence of chemical substance/absence: YHR095W (gene YHR095W): 0.9
The level of expressed mRNA in the presence of chemical substance/absence: YHR105W (gene YHR105W): 1.2
The level of expressed mRNA in the presence of chemical substance/absence: YHR134W (gene YHR134W): 1.6
level of expressed mRNA in the presence of chemical substance/in its absence (gene YHR137W): 0.8
The level of expressed mRNA in the presence of chemical substance/absence: YHR180W (gene YHR180W): 1.5
The level of expressed mRNA in the presence of chemical substance/absence: YHR181W (gene YHR181W): 1.6
level of expressed mRNA in the presence of chemical substance/in its absence (gene YHR190W): 1.3
level of expressed mRNA in the presence of chemical substance/in its absence (gene YIL033C): 0.7
The level of expressed mRNA in the presence of chemical substance/absence: YIL108W (gene YIL108W): 1.0
The level of expressed mRNA in the presence of chemical substance/absence: YIL127C (gene YIL127C): 1.3
level of expressed mRNA in the presence of chemical substance/in its absence (gene YIL154C): 0.9
The level of expressed mRNA in the presence of chemical substance/absence: YIL165C (gene YIL165C): 1.3
level of expressed mRNA in the presence of chemical substance/in its absence (gene YIL167W): 1.4
level of expressed mRNA in the presence of chemical substance/in its absence (gene YIR035C): 1.1
The level of expressed mRNA in the presence of chemical substance/absence: YJL017W (gene YJL017W): 1.0
The level of expressed mRNA in the presence of chemical substance/absence: YJL032W (gene YJL032W): 1.6
The level of expressed mRNA in the presence of chemical substance/absence: YJL037W (gene YJL037W): 2.0
The level of expressed mRNA in the presence of chemical substance/absence: YJL049W (gene YJL049W): 1.8
level of expressed mRNA in the presence of chemical substance/in its absence (gene YJL088W): 2.0
The level of expressed mRNA in the presence of chemical substance/absence: YJL097W (gene YJL097W): 1.0
level of expressed mRNA in the presence of chemical substance/in its absence (gene YJL132W): 1.4
level of expressed mRNA in the presence of chemical substance/in its absence (gene YJL196C): 0.8
The level of expressed mRNA in the presence of chemical substance/absence: YJR030C (gene YJR030C): 1.0
The level of expressed mRNA in the presence of chemical substance/absence: YJR044C (gene YJR044C): 1.3
level of expressed mRNA in the presence of chemical substance/in its absence (gene YJR142W): 1.3
level of expressed mRNA in the presence of chemical substance/in its absence (gene YJR148W): 1.3
level of expressed mRNA in the presence of chemical substance/in its absence (gene YJR159W): 2.0
The level of expressed mRNA in the presence of chemical substance/absence: YKL051W (gene YKL051W): 0.7
The level of expressed mRNA in the presence of chemical substance/absence: YKL059C (gene YKL059C): 1.1
level of expressed mRNA in the presence of chemical substance/in its absence (gene YKL067W): 1.2
The level of expressed mRNA in the presence of chemical substance/absence: YKL090W (gene YKL090W): 1.4
The level of expressed mRNA in the presence of chemical substance/absence: YKL094W (gene YKL094W): 1.3
The level of expressed mRNA in the presence of chemical substance/absence: YKL097C (gene YKL097C): 1.0
The level of expressed mRNA in the presence of chemical substance/absence: YKL100C (gene YKL100C): 1.0
level of expressed mRNA in the presence of chemical substance/in its absence (gene YKR039W): 1.2
The level of expressed mRNA in the presence of chemical substance/absence: YKR040C (gene YKR040C): 3.8
The level of expressed mRNA in the presence of chemical substance/absence: YLR097C (gene YLR097C): 1.7
level of expressed mRNA in the presence of chemical substance/in its absence (gene YLR142W): 2.1
level of expressed mRNA in the presence of chemical substance/in its absence (gene YLR180W): 0.6
The level of expressed mRNA in the presence of chemical substance/absence: YLR226W (gene YLR226W): 1.1
level of expressed mRNA in the presence of chemical substance/in its absence (gene YLR273C): 1.3
level of expressed mRNA in the presence of chemical substance/in its absence (gene YLR300W): 0.6
level of expressed mRNA in the presence of chemical substance/in its absence (gene YLR307W): 1.9
The level of expressed mRNA in the presence of chemical substance/absence: YLR338W (gene YLR338W): 0.8
The level of expressed mRNA in the presence of chemical substance/absence: YLR339C (gene YLR339C): 0.5
The level of expressed mRNA in the presence of chemical substance/absence: YLR392C (gene YLR392C): 1.1
The level of expressed mRNA in the presence of chemical substance/absence: YLR415C (gene YLR415C): 0.8
The level of expressed mRNA in the presence of chemical substance/absence: YLR427W (gene YLR427W): 0.8
The level of expressed mRNA in the presence of chemical substance/absence: YML013W (gene YML013W): 1.1
The level of expressed mRNA in the presence of chemical substance/absence: YML029W (gene YML029W): 1.6
The level of expressed mRNA in the presence of chemical substance/absence: YML041C (gene YML041C): 2.2
The level of expressed mRNA in the presence of chemical substance/absence: YML079W (gene YML079W): 1.4
level of expressed mRNA in the presence of chemical substance/in its absence (gene YML110C): 1.4
The level of expressed mRNA in the presence of chemical substance/absence: YML118W (gene YML118W): 1.0
The level of expressed mRNA in the presence of chemical substance/absence: YMR068W (gene YMR068W): 1.1
The level of expressed mRNA in the presence of chemical substance/absence: YMR071C (gene YMR071C): 1.2
level of expressed mRNA in the presence of chemical substance/in its absence (gene YMR105C): 1.0
The level of expressed mRNA in the presence of chemical substance/absence: YMR114C (gene YMR114C): 1.5
The level of expressed mRNA in the presence of chemical substance/absence: YMR115W (gene YMR115W): 1.3
The level of expressed mRNA in the presence of chemical substance/absence: YMR160W (gene YMR160W): 1.1
level of expressed mRNA in the presence of chemical substance/in its absence (gene YMR189W): 1.6
The level of expressed mRNA in the presence of chemical substance/absence: YMR258C (gene YMR258C): 1.0
level of expressed mRNA in the presence of chemical substance/in its absence (gene YMR271C): 1.8
level of expressed mRNA in the presence of chemical substance/in its absence (gene YMR272C): 0.8
level of expressed mRNA in the presence of chemical substance/in its absence (gene YMR296C): 0.7
level of expressed mRNA in the presence of chemical substance/in its absence (gene YNL012W): 1.0
The level of expressed mRNA in the presence of chemical substance/absence: YNL026W (gene YNL026W): 0.8
level of expressed mRNA in the presence of chemical substance/in its absence (gene YNL037C): 1.3
level of expressed mRNA in the presence of chemical substance/in its absence (gene YNL045W): 0.8
The level of expressed mRNA in the presence of chemical substance/absence: YNL058C (gene YNL058C): 0.8
The level of expressed mRNA in the presence of chemical substance/absence: YNL063W (gene YNL063W): 1.1
level of expressed mRNA in the presence of chemical substance/in its absence (gene YNL104C): 0.9
level of expressed mRNA in the presence of chemical substance/in its absence (gene YNL106C): 1.1
level of expressed mRNA in the presence of chemical substance/in its absence (gene YNL130C): 1.0
level of expressed mRNA in the presence of chemical substance/in its absence (gene YNL169C): 0.9
The level of expressed mRNA in the presence of chemical substance/absence: YNL176C (gene YNL176C): 0.9
The level of expressed mRNA in the presence of chemical substance/absence: YNL181W (gene YNL181W): 1.9
The level of expressed mRNA in the presence of chemical substance/absence: YNL191W (gene YNL191W): 1.0
The level of expressed mRNA in the presence of chemical substance/absence: YNL194C (gene YNL194C): 3.0
The level of expressed mRNA in the presence of chemical substance/absence: YNL200C (gene YNL200C): 0.6
The level of expressed mRNA in the presence of chemical substance/absence: YNL212W (gene YNL212W): 1.0
level of expressed mRNA in the presence of chemical substance/in its absence (gene YNL231C): 0.9
The level of expressed mRNA in the presence of chemical substance/absence: YNL253W (gene YNL253W): 1.4
The level of expressed mRNA in the presence of chemical substance/absence: YNL265C (gene YNL265C): 1.9
The level of expressed mRNA in the presence of chemical substance/absence: YNL276C (gene YNL276C): 1.5
level of expressed mRNA in the presence of chemical substance/in its absence (gene YNL322C): 1.2
level of expressed mRNA in the presence of chemical substance/in its absence (gene YNR002C): 1.2
level of expressed mRNA in the presence of chemical substance/in its absence (gene YNR019W): 1.0
level of expressed mRNA in the presence of chemical substance/in its absence (gene YNR033W): 0.9
The level of expressed mRNA in the presence of chemical substance/absence: YNR051C (gene YNR051C): 1.0
level of expressed mRNA in the presence of chemical substance/in its absence (gene YNR059W): 1.0
The level of expressed mRNA in the presence of chemical substance/absence: YOL026C (gene YOL026C): 1.3
The level of expressed mRNA in the presence of chemical substance/absence: YOL030W (gene YOL030W): 0.6
level of expressed mRNA in the presence of chemical substance/in its absence (gene YOL058W): 1.5
level of expressed mRNA in the presence of chemical substance/in its absence (gene YOL126C): 1.2
level of expressed mRNA in the presence of chemical substance/in its absence (gene YOL143C): 0.7
level of expressed mRNA in the presence of chemical substance/in its absence (gene YOL153C): 1.5
level of expressed mRNA in the presence of chemical substance/in its absence (gene YOL157C): 1.2
The level of expressed mRNA in the presence of chemical substance/absence: YOR022C (gene YOR022C): 1.0
The level of expressed mRNA in the presence of chemical substance/absence: YOR087W (gene YOR087W): 0.9
The level of expressed mRNA in the presence of chemical substance/absence: YOR088W (gene YOR088W): 0.4
level of expressed mRNA in the presence of chemical substance/in its absence (gene YOR099W): 0.7
level of expressed mRNA in the presence of chemical substance/in its absence (gene YOR130C): 1.3
level of expressed mRNA in the presence of chemical substance/in its absence (gene YOR136W): 0.9
The level of expressed mRNA in the presence of chemical substance/absence: YOR138C (gene YOR138C): 0.9
The level of expressed mRNA in the presence of chemical substance/absence: YOR155C (gene YOR155C): 1.5
The level of expressed mRNA in the presence of chemical substance/absence: YOR253W (gene YOR253W): 1.3
